Measured values: patent publication US7668586B2, “In vivo multiphoton diagnostic detection and imaging of a neurodegenerative disease” (Cornell Research Foundation, Inc., priority 2000, dated 2010)
One block for each molecule: values may come before it.

Legend:
pial arteriole = experiment: Pial vessel reactivity, closed cranial window, vessel diameter measurement; conditions: 14-month-old Tg+ (four out of five, outlier excluded); ACh 10 and 25 μM, SNP 0.5 μM superfused
[1] = Fluorescent angiography after tail vein injection; conditions: injected into tail vein, at least 20 minutes prior to imaging
amyloid plaques = amyloid plaques (Homo sapiens, UniProt P05067); experiment: In vivo multiphoton imaging of thioflavine S-positive amyloid; parameters: species or system Tg2576 mouse; conditions: dilute solution applied to brain, 750 nm 2-photon excitation
Sequence of amyloid plaques (P05067 672-711 limits assumed): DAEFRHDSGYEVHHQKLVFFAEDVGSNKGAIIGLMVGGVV

Molecule: CC(=O)OCC[N+](C)(C)C [ACh, Acetylcholine]
vessel dilation relative to control (non-transgenic) animals (pial arteriole): about 25%

crossing of the blood-brain barrier [1]: did not cross the blood-brain barrier
Molecule: O=C1OC2(c3ccc(O)cc3Oc3cc(O)ccc32)c2ccccc21 [fluorescein]

Molecule: Thioflavine S
depth to the surface of the cortex at which plaques were visualized (amyloid plaques): up to 150 μm
